The values that follow come from patent publication EP4741386A1 (Jiangsu Yahong Meditech Co., Ltd., priority 2023, dated 2025).

For test [1], the target named is T1, Recombinant human His6-USP1/His6-UAF1 complex protein (Homo sapiens, UniProt O94782).
T1 construct: His6; purchased R&D E-568-050
Put plainly: In vitro inhibitory activity against USP1 (Ubiquitin Rhodamine 110 fluorescence detection, 384-well plate). The test is classed as biochemical. To be noted: Ub-Rho substrate, 1 hour pre-incubation, read after 30 minutes. An outline of the steps: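 Fluorescence assay measuring inhibition of recombinant human His6-USP1/His6-UAF1 complex with Ubiquitin-Rhodamine 110 substrate. Compounds held as 50 mM stocks in 100% DMSO and dispensed by acoustic transfer into modified Tris assay buffer.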

The test system of another test is MDA-MB-436. The test is described as follows: CTG experiment for cell viability (CellTiter-Glo, 96-well plate, 7 days). The test is classed as cell-based. The conditions noted are these: Homo sapiens, MDA-MB-436, 168 h, MDA-MB-436 cells, 7 days culture with compound. An outline of the steps: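 MDA-MB-436 cells in DMEM were plated in 96-well format, treated with compounds, and cultured 7 days at 37°C. After removing the medium, cells were given PBS plus CellTiter-Glo reagent, incubated 10 min at room temperature, and luminescence was read. Curves were fitted as for the enzyme assay.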
On the technique in general: Cellular ATP, detected with luciferase, serves as a proxy for viable cell number.

T1 sequence (O94782 whole entry): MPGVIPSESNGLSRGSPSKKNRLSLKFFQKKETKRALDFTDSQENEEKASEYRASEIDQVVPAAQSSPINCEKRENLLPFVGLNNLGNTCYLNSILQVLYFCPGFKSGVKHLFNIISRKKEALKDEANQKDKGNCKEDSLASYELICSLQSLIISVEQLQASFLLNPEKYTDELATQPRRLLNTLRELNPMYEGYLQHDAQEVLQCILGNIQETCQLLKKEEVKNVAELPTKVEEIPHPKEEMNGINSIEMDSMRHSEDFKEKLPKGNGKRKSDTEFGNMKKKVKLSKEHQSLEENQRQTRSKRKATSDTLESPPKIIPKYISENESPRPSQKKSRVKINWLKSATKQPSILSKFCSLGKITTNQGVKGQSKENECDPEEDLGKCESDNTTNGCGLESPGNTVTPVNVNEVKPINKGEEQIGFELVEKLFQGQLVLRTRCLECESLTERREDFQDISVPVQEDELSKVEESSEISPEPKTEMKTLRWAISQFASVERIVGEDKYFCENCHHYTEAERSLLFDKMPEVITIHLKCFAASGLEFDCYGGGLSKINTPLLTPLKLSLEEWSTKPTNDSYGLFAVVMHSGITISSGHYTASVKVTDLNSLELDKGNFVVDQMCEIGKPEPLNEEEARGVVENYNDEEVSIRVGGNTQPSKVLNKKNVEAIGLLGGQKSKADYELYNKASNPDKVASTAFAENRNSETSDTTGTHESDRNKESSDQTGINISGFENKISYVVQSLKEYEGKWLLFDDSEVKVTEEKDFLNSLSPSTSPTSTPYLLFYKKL
T1 sequence (Q8TAF3 whole entry partner): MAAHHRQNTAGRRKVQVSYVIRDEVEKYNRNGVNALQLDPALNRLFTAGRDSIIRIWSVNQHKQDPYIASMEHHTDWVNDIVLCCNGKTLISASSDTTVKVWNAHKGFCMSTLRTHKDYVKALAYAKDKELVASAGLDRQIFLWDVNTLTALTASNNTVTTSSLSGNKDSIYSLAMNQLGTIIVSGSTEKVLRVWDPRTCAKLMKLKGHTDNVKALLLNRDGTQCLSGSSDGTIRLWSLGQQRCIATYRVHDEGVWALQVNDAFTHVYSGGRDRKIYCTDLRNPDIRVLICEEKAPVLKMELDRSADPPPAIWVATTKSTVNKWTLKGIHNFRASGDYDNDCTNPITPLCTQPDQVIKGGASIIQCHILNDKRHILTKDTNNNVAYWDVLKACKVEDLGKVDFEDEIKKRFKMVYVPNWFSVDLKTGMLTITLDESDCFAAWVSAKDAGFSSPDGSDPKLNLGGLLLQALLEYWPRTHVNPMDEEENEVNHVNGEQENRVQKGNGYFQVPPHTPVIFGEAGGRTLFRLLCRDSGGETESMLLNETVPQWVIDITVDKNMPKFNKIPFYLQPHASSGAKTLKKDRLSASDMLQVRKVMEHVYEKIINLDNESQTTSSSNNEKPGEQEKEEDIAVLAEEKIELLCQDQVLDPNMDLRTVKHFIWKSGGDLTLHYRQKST

Turning to `CCOCCOc1ccc(CNc2nc(-c3c(OC)ncnc3C3CC3)ncc2OC)cc1` [Example 99, 4'-Cyclopropyl-N-(4-(2-ethoxyethoxy)benzyl)-5,6'-dimethoxy-[2,5'-bipyrimidin]-4-amine], the IC50 in test [1] was 15.1 nM; in the test on MDA-MB-436, 445 nM.
Turning to `COc1cc(-c2nc(C(F)(F)F)cn2C)ccc1CNc1nc(-c2c(OC)ncnc2C2CC2)ncc1OC` [Example 100, 4'-Cyclopropyl-5,6'-dimethoxy-N-(2-methoxy-4-(1-methyl-4-(trifluoromethyl)-1H-imidazol-2-yl)benzyl)-[2,5'-bipyrimidin]-4-amine], the concentration for half-maximal inhibition (IC50) in test [1] turned out to be 4.1 nM; in the test with MDA-MB-436 it was 27.8 nM.
The matching figures for `COc1cc(CNc2nc(-c3c(OC)ncnc3C3CC3)ncc2OC)ccc1-c1nc(C(F)(F)F)cn1C` [Example 101, 4'-Cyclopropyl-5,6'-dimethoxy-N-(3-methoxy-4-(1-methyl-4-(trifluoromethyl)-1H-imidazol-2-yl)benzyl)-[2,5'-bipyrimidin]-4-amine]: 15 nM and 99.1 nM.
With `COc1cc(-n2nc(C(F)(F)F)cc2C)ccc1CNc1nc(-c2c(OC)ncnc2C2CC2)ncc1OC` [Example 102, 4'-Cyclopropyl-5,6'-dimethoxy-N-(2-methoxy-4-(5-methyl-3-(trifluoromethyl)-1H-pyrazol-1-yl)benzyl)-[2,5'-bipyrimidin]-4-amine], the values for the IC50 (in test [1]; in the test with MDA-MB-436) were 4.4 nM and 15.8 nM, respectively.
With `COc1cc(CNc2nc(-c3c(OC)ncnc3C3CC3)ncc2OC)ccc1-n1nc(C(F)(F)F)cc1C` [Example 103, 4'-Cyclopropyl-5,6'-dimethoxy-N-(3-methoxy-4-(5-methyl-3-(trifluoromethyl)-1H-pyrazol-1-yl)benzyl)-[2,5'-bipyrimidin]-4-amine], the half-maximal inhibitory concentration (IC50) was found to be 10 nM in test [1] and 141 nM in the test on MDA-MB-436.
On to `COc1cnc(-c2c(OC)ncnc2C2CC2)nc1NCC12CCC(c3nc(C(F)(F)F)cn3C)(CC1)CC2` [Example 104, 4'-Cyclopropyl-5,6'-dimethoxy-N-((4-(1-methyl-4-(trifluoromethyl)-1H-imidazol-2-yl)bicyclo[2.2.2]octan-1-yl)methyl)-[2,5'-bipyrimidin]-4-amine], for which the 50% inhibitory concentration (IC50) in test [1] was 8.8 nM; in the test on MDA-MB-436, 13.7 nM.
The matching figures for `COc1cnc(-c2c(OC)ncnc2C2CC2)nc1NCc1ccc(-c2nc(C)cn2C(F)F)cc1` [Example 105, 4'-Cyclopropyl-N-(4-(1-(difluoromethyl)-4-methyl-1H-imidazol-2-yl)benzyl)-5,6'-dimethoxy-[2,5'-bipyrimidin]-4-amine]: 60 nM and 124 nM.
The matching figures for `COc1cnc(-c2c(OC)ncnc2C2CC2)nc1NCc1ccc(-c2nc(C(F)(F)F)cn2C(C)C)cc1` [Example 106, 4'-Cyclopropyl-N-(4-(1-isopropyl-4-(trifluoromethyl)-1H-imidazol-2-yl)benzyl)-5,6'-dimethoxy-[2,5'-bipyrimidin]-4-amine]: 2.9 nM and 4.7 nM.
Regarding `COc1cnc(-c2c(OC)ncnc2C2CC2)nc1NCc1ccc(-c2nc(C(F)(F)F)cn2CF)cc1` [Example 107, 4'-Cyclopropyl-N-(4-(1-(fluoromethyl)-4-(trifluoromethyl)-1H-imidazol-2-yl)benzyl)-5,6'-dimethoxy-[2,5'-bipyrimidin]-4-amine], the IC50 came out at 16 nM in test [1] and 17.5 nM with MDA-MB-436.
Regarding `COc1ncnc(C2CC2)c1-c1ncc(OC(C)C)c(N(C)CC2CCN(c3nc(C(F)(F)F)cn3C)CC2)n1` [Example 108, 4'-Cyclopropyl-5-isopropoxy-6'-methoxy-N-methyl-N-((1-(1-methyl-4-(trifluoromethyl)-1H-imidazol-2-yl)piperidin-4-yl)methyl)-[2,5'-bipyrimidin]-4-amine], the IC50 in test [1] is 19.7 nM; in the test on MDA-MB-436 it was 353 nM.
In the case of `COc1ncnc(C2CC2)c1-c1ncc(OC(C)C)c(N(C)Cc2ccc(-c3nc(C(F)(F)F)cn3C)cc2)n1` [Example 109, 4'-Cyclopropyl-5-isopropoxy-6'-methoxy-N-methyl-N-(4-(1-methyl-4-(trifluoromethyl)-1H-imidazol-2-yl)benzyl)-[2,5'-bipyrimidin]-4-amine], the IC50 stood at 5.3 nM in test [1] and 48.3 nM in the test with MDA-MB-436.
Take `COc1ncnc(C2CC2)c1-c1ncc(OC(C)C)c(NCC2CCN(c3nc(C(F)(F)F)cn3C)CC2)n1` [Example 110, 4'-Cyclopropyl-5-isopropoxy-6'-methoxy-N-((1-(1-methyl-4-(trifluoromethyl)-1H-imidazol-2-yl)piperidin-4-yl)methyl)-[2,5'-bipyrimidin]-4-amine]: the figures for the 50% inhibitory concentration (IC50) (in test [1]; with MDA-MB-436) were 28.6 nM and 354 nM, respectively.
For the molecule `COc1ncnc(C2CC2)c1-c1ncc(OC(C)C)c(NCc2ccc(-c3nc(C(F)(F)F)cn3C)cc2)n1` [Example 111, 4'-Cyclopropyl-5-isopropoxy-6'-methoxy-N-(4-(1-methyl-4-(trifluoromethyl)-1H-imidazol-2-yl)benzyl)-[2,5'-bipyrimidin]-4-amine], the IC50 worked out at 10.4 nM in test [1] and 88.1 nM with MDA-MB-436.
Take `COc1ncnc(C2CC2)c1-c1nc(NCc2ccc(-c3nc(C(F)(F)F)cn3C)s2)c2occc2n1` [Example 113, 2-(4-Cyclopropyl-6-methoxypyrimidin-5-yl)-N-((5-(1-methyl-4-(trifluoromethyl)-1H-imidazol-2-yl)thiophen-2-yl)methyl)furo[3,2-d]pyrimidin-4-amine]: the concentration for half-maximal inhibition (IC50) came to 23 nM in test [1] and 87.2 nM with MDA-MB-436.
In the case of `COc1ncnc(C2CC2)c1-c1nc(NCc2ccc(OCc3ccccn3)cc2)c2occc2n1` [Example 116, 2-(4-Cyclopropyl-6-methoxypyrimidin-5-yl)-N-(4-(pyridin-2-ylmethoxy)benzyl)furo[3,2-d]pyrimidin-4-amine], the IC50 in test [1] amounted to 19.4 nM; in the test on MDA-MB-436, 536 nM.
Consider `CCOCCOc1ccc(CNc2nc(-c3c(OC)ncnc3C3CC3)nc3ccoc23)cc1` [Example 117, 2-(4-Cyclopropyl-6-methoxypyrimidin-5-yl)-N-(4-(2-ethoxyethoxy)benzyl)furo[3,2-d]pyrimidin-4-amine], for which the IC50 in test [1] amounted to 13.8 nM; in the test on MDA-MB-436, 278 nM.
In the case of `COc1cc(-c2nc(C(F)(F)F)cn2C)ccc1CNc1nc(-c2c(OC)ncnc2C2CC2)nc2ccoc12` [Example 119, 2-(4-Cyclopropyl-6-methoxypyrimidin-5-yl)-N-(2-methoxy-4-(1-methyl-4-(trifluoromethyl)-1H-imidazol-2-yl)benzyl)furo[3,2-d]pyrimidin-4-amine], the half-inhibitory concentration (IC50) in test [1] stood at 7.6 nM; in the test with MDA-MB-436, 16.9 nM.
With `COc1cc(CNc2nc(-c3c(OC)ncnc3C3CC3)nc3ccoc23)ccc1-c1nc(C(F)(F)F)cn1C` [Example 120, 2-(4-Cyclopropyl-6-methoxypyrimidin-5-yl)-N-(3-methoxy-4-(1-methyl-4-(trifluoromethyl)-1H-imidazol-2-yl)benzyl)furo[3,2-d]pyrimidin-4-amine], the IC50 in test [1] turned out to be 8.9 nM; in the test with MDA-MB-436, 50.5 nM.
Consider `COc1cc(-n2nc(C(F)(F)F)cc2C)ccc1CNc1nc(-c2c(OC)ncnc2C2CC2)nc2ccoc12` [Example 121, 2-(4-Cyclopropyl-6-methoxypyrimidin-5-yl)-N-(2-methoxy-4-(5-methyl-3-(trifluoromethyl)-1H-pyrazol-1-yl)benzyl)furo[3,2-d]pyrimidin-4-amine], for which the results for the half-inhibitory concentration (IC50) (in test [1]; in the test with MDA-MB-436) were 8.3 nM and 23.9 nM, respectively.
On to `COc1cc(CNc2nc(-c3c(OC)ncnc3C3CC3)nc3ccoc23)ccc1-n1nc(C(F)(F)F)cc1C` [Example 122, 2-(4-Cyclopropyl-6-methoxypyrimidin-5-yl)-N-(3-methoxy-4-(5-methyl-3-(trifluoromethyl)-1H-pyrazol-1-yl)benzyl)furo[3,2-d]pyrimidin-4-amine], for which the IC50 was found to be 13 nM in test [1] and 82.8 nM in the test on MDA-MB-436.
Regarding `COc1ncnc(C2CC2)c1-c1nc(NCc2ccc(-c3nc(C(F)F)cn3C)cc2)c2occc2n1` [Example 123, 2-(4-Cyclopropyl-6-methoxypyrimidin-5-yl)-N-(4-(4-(difluoromethyl)-1-methyl-1H-imidazol-2-yl)benzyl)furo[3,2-d]pyrimidin-4-amine], the IC50 was 20 nM in test [1] and 169 nM with MDA-MB-436.
Regarding `COc1ncnc(C2CC2)c1-c1ncc(Cl)c(NCc2ccc(-c3nc(C(F)(F)F)cn3C)cc2)n1` [Example 124, 5-Chloro-4'-cyclopropyl-6'-methoxy-N-(4-(1-methyl-4-(trifluoromethyl)-1H-imidazol-2-yl)benzyl)-[2,5'-bipyrimidin]-4-amine], the IC50 turned out to be 6.1 nM in test [1] and 13.2 nM in the test with MDA-MB-436.
In the case of `COc1ncnc(C2CC2)c1-c1ncc(Cl)c(NCc2ccc(-c3nc(C(F)(F)F)cn3C3CC3)cc2)n1` [Example 125, 5-Chloro-4'-cyclopropyl-N-(4-(1-cyclopropyl-4-(trifluoromethyl)-1H-imidazol-2-yl)benzyl)-6'-methoxy-[2,5'-bipyrimidin]-4-amine], the values for the IC50 (in test [1]; in the test with MDA-MB-436) were 3.1 nM and 0.5 nM, respectively.
On to `COc1ncnc(C2CC2)c1-c1ncc(Cl)c(NCc2ccc(-c3nc(C(F)(F)F)cn3CF)cc2)n1` [Example 126, 5-Chloro-4'-cyclopropyl-N-(4-(1-(fluoromethyl)-4-(trifluoromethyl)-1H-imidazol-2-yl)benzyl)-6'-methoxy-[2,5'-bipyrimidin]-4-amine], for which the IC50 stood at 13 nM in test [1] and 22.7 nM in the test with MDA-MB-436.
As for `COc1ncnc(C2CC2)c1-c1ncc(F)c(N(C)Cc2ccc(-c3nc(C(F)(F)F)cn3C(C)C)cc2)n1` [Example 127, 4'-Cyclopropyl-5-fluoro-N-(4-(1-isopropyl-4-(trifluoromethyl)-1H-imidazol-2-yl)benzyl)-6'-methoxy-N-methyl-[2,5'-bipyrimidin]-4-amine], the half-maximal inhibitory concentration (IC50) was 4.2 nM in test [1] and 12.2 nM in the test on MDA-MB-436.

For orientation: IC50 means the point on the concentration scale where inhibition reaches its midpoint.
